Laboratory results: patent publication US20230338491A1, “METHOD FOR SCREENING INDIVIDUAL TUMOR NEOANTIGEN PEPTIDE, AND VACCINE FORMULATION THEREOF” (HANGZHOU NEOANTIGEN THERAPEUTICS CO., LTD., priority 2021, published 2023)
Where two headings read alike, the source gives them in different places. Ends that are not written are not given here.

Test: solubility comparison test in water and mannitol solutions
Type: physicochemical
Text: Mannitol is a common adjuvant (skeleton forming agent) of freeze-dried preparation, which is used as a carrier to form a hard uniform skeleton so as to improve appearance of the freeze-dried preparation in glass bottles. […] Hydroxyl groups in mannitol molecule can form hydrogen bonds with carbonyl groups in peptide bonds, which cannot directly promote dissolution of polypeptides, but can promote formation of micelle. Therefore, solubilization of mannitol is mainly solubility enhancement after micelle formation. Results of solubility comparison test of the same polypeptide in water and mannitol solutions with different concentrations shown in table 7 as follows: […]

[1] = Solubility in 1% of mannitol solution
[2] = Solubility in 2% of mannitol solution
[3] = 1% of mannitol solution, read-out: Solubility in 1% of mannitol solution
[4] = 2% of mannitol solution, read-out: Solubility in 2% of mannitol solution
[5] = water, read-out: Solubility in water

solubility [1] [µg/mL] | solubility [2] [µg/mL] | solubility (Solubility in water) [µg/mL] | solubility [3] [µg/mL] | solubility [4] [µg/mL] | solubility [5] [µg/mL] | Compound
– | – | – | ≥ 1000 | ≥ 1000 | < 100 | DIQDLKTCIASTTQNIEQKKK [WJIA11]
– | – | – | ≥ 1000 | ≥ 1000 | 300 | FAEKLTLILQEKYKNYWYPEKPSKGQAY [YMZH17]
– | – | – | > 1000 | > 1000 | < 100 | FITRPPHRFLSLLCLGLRIPQLSV [YMZH19]
– | – | – | ≥ 1000 | ≥ 1000 | < 100 | KEQMMREKEKLMLRLQDYEEKTKK [ZZJI58]
– | – | – | ≥ 1000 | ≥ 1000 | < 100 | KGFTQGDVGLAMGKLYRNDFSQTTISRFEA [TZQI66]
– | – | – | ≥ 1000 | ≥ 1000 | < 100 | KKKKFVALVLSTLHMLTYGWTRAFEESRYK [ZZJI44]
– | – | – | ≥ 1000 | ≥ 1000 | 300 | KLTLASWGPKMVLLRLEHQFAVGK [YMZH14]
– | – | – | ≥ 1000 | ≥ 1000 | < 100 | PGWSLTLGLRCSSRLGLPK [LYLI37, PGWSLTLGLRCSSRLGLPK]
– | – | – | ≥ 1000 | ≥ 1000 | < 100 | SSPAEFFELMKGQIRIAKRRVVMASLYLGT [TZQI51]
– | – | – | ≥ 1000 | ≥ 1000 | < 100 | SVFGDRITGETIRSQNVMAAASK [WKYE17]
– | – | – | ≥ 1000 | ≥ 1000 | 300 | YKQLTIQVLLDRLVLQRLYPLAIQIKK [YMZH10]

Second part, the compound before the results:

Compound | solubility [1] [µg/mL] | solubility [2] [µg/mL] | solubility (Solubility in water) [µg/mL] | solubility [3] [µg/mL] | solubility [4] [µg/mL] | solubility [5] [µg/mL]
CC[C@H](C)[C@H](NC(=O)[C@H](CC(C)C)NC(=O)[C@H](CCC(N)=O)NC(=O)[C@@H](NC(=O)[C@@H](NC(=O)[C@H](CC(C)C)NC(=O)[C@H](C)NC(=O)[C@H](CO)NC(=O)[C@H](CCCCN)NC(=O)CNC(=O)[C@@H](NC(=O)CNC(=O)[C@H](CC(=O)O)NC(=O)[C@H](C)NC(=O)CNC(=O)[C@@H](NC(=O)[C@@H](NC(=O)[C@@H](N)CCCCN)C(C)C)C(C)C)C(C)C)[C@@H](C)O)[C@@H](C)CC)C(=O)N[C@@H](CCC(N)=O)C(=O)N[C@@H](CC(N)=O)C(=O)N[C@@H](Cc1c[nH]cn1)C(=O)O [GWMI01] | ≥ 1000 | ≥ 1000 | < 100 | – | – | –
FHDQPHLKRKAVCSFQIYAVPWQGT [HMZH51] | – | – | – | ≥ 10000 | ≥ 10000 | < 2000
GQAFKYSSNLLRHMRTHTGEKPF [HMZH60] | ≥ 10000 | ≥ 10000 | < 2000 | – | – | –
KFKYVGTMEASEDATFNKITRSLQDLQQK [HMZH66] | – | – | – | ≥ 10000 | ≥ 10000 | ≤ 1500
KKKGQQLSGVNAIYFYADQIYLSAGVPEEH [GWMI10] | – | – | – | ≥ 1000 | ≥ 1000 | < 100
KLVFVRKSLNRIEFRECREEILKFLKK [GWMI13] | – | – | – | ≥ 1000 | ≥ 1000 | < 100
SRKLEDYGEQKSMSISTAKRLAEFLGDQK [HMZH59] | – | – | – | ≥ 1000 | ≥ 1000 | 300
TSLKGEIAFDPRRAYYLWF [LXJI54, TSLKGEIAFDPRRAYYLWF] | – | – | – | ≥ 1000 | ≥ 1000 | < 100
